Data: ChEMBL document CHEMBL1201862, “PubChem BioAssay data set” (2004)
The source made the active and inactive calls.

Columns and labels:
[1] = target: T1, Corticotropin-releasing factor receptor 2/Corticotropin-releasing factor-binding protein (Homo sapiens, UniProt P24387+Q13324); assay: Dose Response confirmation of uHTS hits for small molecule antagonists of the CRF-binding protein and CRF-R2 receptor complex.; format: functional; conditions: read-out: IC50_Mean
T1 sequence (Q13324 whole entry): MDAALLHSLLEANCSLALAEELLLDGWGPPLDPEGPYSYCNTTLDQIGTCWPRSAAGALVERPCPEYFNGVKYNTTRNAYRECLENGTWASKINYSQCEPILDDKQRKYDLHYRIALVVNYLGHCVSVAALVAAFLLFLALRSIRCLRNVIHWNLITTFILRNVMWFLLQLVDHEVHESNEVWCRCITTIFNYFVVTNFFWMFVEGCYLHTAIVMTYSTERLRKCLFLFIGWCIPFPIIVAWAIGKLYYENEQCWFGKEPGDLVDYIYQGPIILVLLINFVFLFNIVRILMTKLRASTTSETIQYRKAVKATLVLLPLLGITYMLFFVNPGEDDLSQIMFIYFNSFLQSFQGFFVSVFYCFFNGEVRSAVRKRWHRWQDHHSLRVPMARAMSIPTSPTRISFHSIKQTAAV
T1 sequence (P24387 whole entry): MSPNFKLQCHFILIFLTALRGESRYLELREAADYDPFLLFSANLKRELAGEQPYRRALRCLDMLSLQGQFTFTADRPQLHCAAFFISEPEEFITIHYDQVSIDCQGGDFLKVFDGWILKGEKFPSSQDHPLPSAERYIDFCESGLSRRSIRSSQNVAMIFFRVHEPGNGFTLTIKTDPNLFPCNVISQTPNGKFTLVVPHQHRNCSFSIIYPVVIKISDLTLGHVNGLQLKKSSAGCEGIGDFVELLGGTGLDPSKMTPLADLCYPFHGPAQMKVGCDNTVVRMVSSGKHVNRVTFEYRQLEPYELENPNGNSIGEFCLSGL

[2] = target: T1, Corticotropin-releasing factor receptor 2/Corticotropin-releasing factor-binding protein; assay: activators of CRF receptor 2 with binding protein – uHTS hits, confirmation (AID 602473); format: functional; conditions: read-out: EC50_Mean
HeLa = assay: ATP-based viability loss in HeLa cells – cell-based, CellTiter-Glo luminescence, cherry-pick samples, cytotoxicity control for MITF activator project, dose response (AID 540259); format: functional; conditions: Homo sapiens
[3] = target: Dual specificity tyrosine-phosphorylation-regulated kinase 1A (Rattus norvegicus, UniProt Q63470); format: biochemical, Homo sapiens
[4] = target: Histone-lysine N-methyltransferase NSD2 (Homo sapiens, UniProt O96028); format: biochemical
Histone-lysine N-methyltransferase NSD2, sequence (O96028 whole entry): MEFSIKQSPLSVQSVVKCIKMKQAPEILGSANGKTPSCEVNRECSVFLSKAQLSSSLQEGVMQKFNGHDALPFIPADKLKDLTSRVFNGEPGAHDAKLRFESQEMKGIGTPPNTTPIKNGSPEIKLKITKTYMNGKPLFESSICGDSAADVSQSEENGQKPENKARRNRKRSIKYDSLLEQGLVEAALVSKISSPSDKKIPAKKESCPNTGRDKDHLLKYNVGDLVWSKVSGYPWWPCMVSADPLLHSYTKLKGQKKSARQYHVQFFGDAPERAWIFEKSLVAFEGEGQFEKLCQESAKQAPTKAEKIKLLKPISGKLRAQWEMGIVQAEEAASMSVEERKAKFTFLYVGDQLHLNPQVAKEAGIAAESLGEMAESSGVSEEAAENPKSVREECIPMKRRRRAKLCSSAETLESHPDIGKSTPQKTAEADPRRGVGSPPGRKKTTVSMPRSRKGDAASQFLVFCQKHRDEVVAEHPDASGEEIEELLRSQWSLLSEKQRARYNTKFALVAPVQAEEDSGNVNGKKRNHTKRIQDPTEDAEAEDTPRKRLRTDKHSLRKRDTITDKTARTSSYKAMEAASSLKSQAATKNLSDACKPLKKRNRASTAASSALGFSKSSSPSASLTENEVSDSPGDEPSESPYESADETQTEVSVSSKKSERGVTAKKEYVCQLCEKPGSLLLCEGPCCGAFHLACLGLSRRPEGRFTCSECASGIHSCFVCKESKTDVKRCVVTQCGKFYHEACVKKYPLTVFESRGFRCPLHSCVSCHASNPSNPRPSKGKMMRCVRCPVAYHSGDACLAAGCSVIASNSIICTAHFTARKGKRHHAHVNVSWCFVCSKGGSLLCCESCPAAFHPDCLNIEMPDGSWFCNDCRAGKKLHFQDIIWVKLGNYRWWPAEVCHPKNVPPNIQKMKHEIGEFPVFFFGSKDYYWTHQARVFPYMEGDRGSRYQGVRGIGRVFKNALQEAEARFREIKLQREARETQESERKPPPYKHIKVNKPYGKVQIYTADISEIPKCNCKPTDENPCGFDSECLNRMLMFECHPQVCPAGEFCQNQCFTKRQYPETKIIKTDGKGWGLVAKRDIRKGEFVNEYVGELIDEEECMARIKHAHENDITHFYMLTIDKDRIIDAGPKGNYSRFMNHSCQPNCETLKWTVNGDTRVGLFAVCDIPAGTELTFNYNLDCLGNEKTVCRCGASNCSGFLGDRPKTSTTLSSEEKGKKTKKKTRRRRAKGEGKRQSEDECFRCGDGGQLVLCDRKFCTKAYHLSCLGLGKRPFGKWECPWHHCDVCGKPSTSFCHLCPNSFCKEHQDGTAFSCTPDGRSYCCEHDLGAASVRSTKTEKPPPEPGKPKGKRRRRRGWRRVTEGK

[5] = target: FAD-linked sulfhydryl oxidase ALR (Homo sapiens, UniProt P55789); assay: ALR-catalysed DTT oxidation blockers – biochemical, H2O2 detection, luminescence, cherry-pick, dose response (AID 493248)
FAD-linked sulfhydryl oxidase ALR, sequence (P55789 whole entry): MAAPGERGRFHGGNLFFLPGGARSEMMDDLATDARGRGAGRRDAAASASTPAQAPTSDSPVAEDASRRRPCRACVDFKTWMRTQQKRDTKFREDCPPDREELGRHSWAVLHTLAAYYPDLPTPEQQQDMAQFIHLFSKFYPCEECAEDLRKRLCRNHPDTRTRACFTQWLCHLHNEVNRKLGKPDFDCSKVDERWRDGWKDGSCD

[6] = target: Induced myeloid leukemia cell differentiation protein Mcl-1 (Homo sapiens, UniProt Q07820); format: functional
Induced myeloid leukemia cell differentiation protein Mcl-1, sequence (Q07820 whole entry): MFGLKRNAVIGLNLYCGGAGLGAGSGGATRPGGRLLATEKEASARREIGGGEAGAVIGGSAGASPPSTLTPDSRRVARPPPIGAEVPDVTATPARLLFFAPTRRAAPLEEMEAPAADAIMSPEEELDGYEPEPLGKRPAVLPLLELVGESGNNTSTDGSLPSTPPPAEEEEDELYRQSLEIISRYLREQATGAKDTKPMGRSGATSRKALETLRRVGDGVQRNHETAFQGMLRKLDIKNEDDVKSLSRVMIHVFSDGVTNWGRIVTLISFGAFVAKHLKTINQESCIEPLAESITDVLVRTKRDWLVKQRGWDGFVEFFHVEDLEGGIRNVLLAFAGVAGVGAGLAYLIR

[7] = target: Luciferin 4-monooxygenase (Photinus pyralis, UniProt P08659); assay: In vitro luciferase assay using purified luciferase. [Related pubchem assays: 1299, 1270, 1295, 1375, 1287, 1281, 1293, 1291, 1289, 1280, 465, 1364, 1282, 1372, 1365, 1370, 1367, 1366, 1266, 1373, 1292, 1290, 1302, 1371, 1283, 1271, 1294, 1374, 1368, 1369 ]
Luciferin 4-monooxygenase, sequence (P08659 whole entry): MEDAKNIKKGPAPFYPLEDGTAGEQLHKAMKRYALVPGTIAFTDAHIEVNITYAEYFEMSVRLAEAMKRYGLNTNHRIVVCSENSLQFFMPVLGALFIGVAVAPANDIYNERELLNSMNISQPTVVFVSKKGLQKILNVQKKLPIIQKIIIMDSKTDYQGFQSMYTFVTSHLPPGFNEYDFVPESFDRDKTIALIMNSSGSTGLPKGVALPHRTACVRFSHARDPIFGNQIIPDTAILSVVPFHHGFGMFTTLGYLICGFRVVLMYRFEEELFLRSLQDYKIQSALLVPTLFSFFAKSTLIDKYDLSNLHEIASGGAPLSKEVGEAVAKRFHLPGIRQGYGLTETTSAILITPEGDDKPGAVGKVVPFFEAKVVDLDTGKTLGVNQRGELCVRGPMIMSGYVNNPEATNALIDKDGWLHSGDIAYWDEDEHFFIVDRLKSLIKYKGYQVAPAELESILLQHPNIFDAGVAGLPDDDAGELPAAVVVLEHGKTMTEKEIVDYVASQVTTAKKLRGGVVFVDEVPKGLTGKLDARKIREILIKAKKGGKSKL

[8] = HEK-293T cell viability reduction – luminescence, B-cell screen hits, cytotoxicity control for BCR NF-kB inhibitor project, dose response (AID 489021); format: functional, cell-based;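 also: HEK-293T cells carrying an NF-kB luciferase reporter; cells exposed to compound for about 14 hours before viability readout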
HEK293 [9] = assay: SAR Analysis of small molecule inhibitors of T-cell specific antigen receptor-induced NF-kB activation in a HEK-293T cell line using a luminescence assay - Set 2. [Related pubchem assays (depositor defined):AID435003, AID435012, AID489026]; format: functional, cell-based; conditions: Homo sapiens
HEK293 [10] = assay: EBV LMP1 TES2 canonical NF-kB signalling blockers – cell-based, HEK293, luciferase, cherry-pick, dose response (AID 588343); format: functional; conditions: Homo sapiens
HEK293 [11] = assay: HEK293T cell viability loss, resazurin readout – resazurin fluorescence, cytotoxicity control for NF-kB activator project, SAR follow-up (AID 493251); format: functional, cell-based
Jurkat = assay: SAR Analysis of small molecule inhibitors of T-cell specific antigen receptor-induced NF-kB activation in a Jurkat cell line using a luminescence assay - Set 2. [Related pubchem assays (depositor defined):AID435003, AID435012, AID465]; format: functional, cell-based; conditions: Homo sapiens
HEK293 [12] = assay: Cytotoxicity assay in HEK293 cells. [Related pubchem assays (depositor defined):AID1266, AID1269, AID1270, AID1271, AID1280, AID1281, AID1282, AID1283, AID1287, AID1289, AID1290, AID1291, AID1292, AID1293, AID1294, AID1295, AID1299, AID1302, AID1364, AID1365, AID1366, AID1367, AID1369, AID1370, AID1371, AID1372, AID1373, AID1374, AID1375, AID1384 …; format: functional, cell-based; conditions: Homo sapiens
HEK293 [13] = assay: PMA/Ionomycin induced NF-kB luciferase assay in 293- NF-kB-Luc stable cells. [Related pubchem assays: 1299, 1270, 1295, 1375, 1287, 1281, 1293, 1291, 1289, 1280, 465, 1364, 1282, 1372, 1365, 1370, 1367, 1366, 1269, 1373, 1292, 1290, 1302, 1371, 1283, 1271, 1294, 1374, 1368, 1369 ]; format: functional, cell-based; conditions: Homo sapiens
[14] = target: Serine/threonine-protein phosphatase (Candida dubliniensis (strain CD36 / CBS 7987 / NCPF 3949 / NRRLY-17841) (Yeast), UniProt B9W6M3); assay: blockers of CaCl2-induced CDRE-lacZ signaling – S. cerevisiae, luminescence, secondary, dose response (AID 2388); format: functional, cell-based;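 also: yeast reporter cells carrying a calcineurin-responsive lacZ construct stimulated with calcium chloride; luminescent beta-galactosidase reporter signal in whole cells rather than isolated phosphatase activity; potency for inhibition where a drop in reporter signal means calcineurin blockade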
Serine/threonine-protein phosphatase, sequence (B9W6M3 whole entry): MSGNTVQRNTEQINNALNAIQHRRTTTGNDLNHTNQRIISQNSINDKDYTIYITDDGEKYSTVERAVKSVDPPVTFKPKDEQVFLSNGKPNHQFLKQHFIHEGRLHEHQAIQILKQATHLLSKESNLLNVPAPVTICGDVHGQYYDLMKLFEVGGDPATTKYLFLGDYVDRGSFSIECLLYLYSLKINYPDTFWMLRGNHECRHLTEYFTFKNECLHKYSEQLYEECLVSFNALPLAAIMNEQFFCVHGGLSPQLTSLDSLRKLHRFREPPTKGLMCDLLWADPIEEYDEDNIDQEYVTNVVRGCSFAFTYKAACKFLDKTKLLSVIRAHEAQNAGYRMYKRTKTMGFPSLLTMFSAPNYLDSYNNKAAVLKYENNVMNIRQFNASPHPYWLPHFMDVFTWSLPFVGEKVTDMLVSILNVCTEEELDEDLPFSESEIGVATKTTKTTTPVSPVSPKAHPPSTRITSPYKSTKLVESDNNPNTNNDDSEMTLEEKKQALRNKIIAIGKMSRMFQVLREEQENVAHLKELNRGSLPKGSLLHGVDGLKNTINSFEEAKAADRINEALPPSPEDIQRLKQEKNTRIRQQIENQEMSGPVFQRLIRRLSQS

[15] = target: ATP-dependent molecular chaperone HSP82 (Candida albicans (strain WO-1) (Yeast), UniProt C4YTQ8); assay: steroid-induced GRE reporter decrease in yeast – S. cerevisiae, luminescence, Hsp90 inhibitor project, dose response (AID 2400); format: functional, cell-based;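 also: beta-galactosidase luminescence from glucocorticoid response element reporter as proxy for Hsp90 function; inhibitor potency where signal loss means Hsp90 inhibition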
ATP-dependent molecular chaperone HSP82, sequence (C4YTQ8 whole entry): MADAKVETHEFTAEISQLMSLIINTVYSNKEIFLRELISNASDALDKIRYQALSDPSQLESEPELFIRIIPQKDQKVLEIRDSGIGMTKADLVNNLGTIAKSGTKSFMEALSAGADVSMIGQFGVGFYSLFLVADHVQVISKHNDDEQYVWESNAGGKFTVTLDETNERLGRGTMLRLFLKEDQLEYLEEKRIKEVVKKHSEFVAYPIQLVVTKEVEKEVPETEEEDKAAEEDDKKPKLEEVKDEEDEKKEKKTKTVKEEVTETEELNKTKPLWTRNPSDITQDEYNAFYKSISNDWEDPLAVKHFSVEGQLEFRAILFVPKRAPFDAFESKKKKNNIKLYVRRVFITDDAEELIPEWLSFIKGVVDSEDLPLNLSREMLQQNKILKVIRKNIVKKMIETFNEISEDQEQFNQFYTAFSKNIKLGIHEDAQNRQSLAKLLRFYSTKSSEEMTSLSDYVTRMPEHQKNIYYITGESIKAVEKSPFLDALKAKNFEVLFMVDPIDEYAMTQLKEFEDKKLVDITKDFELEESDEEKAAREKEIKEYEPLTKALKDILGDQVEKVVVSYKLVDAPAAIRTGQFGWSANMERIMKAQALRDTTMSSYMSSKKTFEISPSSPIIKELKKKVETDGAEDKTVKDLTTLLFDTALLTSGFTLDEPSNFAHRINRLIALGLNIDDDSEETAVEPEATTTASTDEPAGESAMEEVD

[16] = fluconazole-exposed Candida albicans growth modulators – fluorescence, retest, confirmation (AID 2467); format: functional, cell-based
[17] = NIH-3T3 fibroblast cytotoxicity, dose response, cytotoxicity control, cell-based, fluorescence, Alamar Blue, secondary assay (AID 2327); format: functional;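 also: NIH-3T3 mouse fibroblasts cultured with fluconazole at 8 µg/mL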
[18] = luciferase reporter signal reduction – luminescence, H4-C neuroglioblastoma cells, dose response (AID 2458); format: functional, cell-based;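 also: H4 neuroglioblastoma cells stably carrying a luciferase reporter gene fusion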
Exodeoxyribonuclease V = Exodeoxyribonuclease V (Escherichia coli (strain K12), UniProt P04993+P07648+P08394); assay: RecBCD inhibition via phage-restricted bacterial growth – absorbance, V66 E. coli, mutant T4 phage, counter-screen for AddAB inhibitor project, dose response (AID 492957); format: functional, cell-based, Escherichia coli str. K-12 substr. MG1655
cells = format: functional, cell-based
[19] = alpha-synuclein stem-loop translation blockers – luminescence, H4 neuroglioblastoma cells, dose confirmation, confirmation (AID 2454); format: functional, cell-based;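 also: H4 neuroglioblastoma cells carrying an alpha-synuclein 5'UTR luciferase reporter; potency for inhibition of the luciferase signal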
[20] = luciferase reporter signal suppression in cells – H4 neuroglioma cells, luminescence, dose response (AID 1990); format: functional, cell-based
[21] = target: T2, Alkaline phosphatase, tissue-nonspecific isozyme (Homo sapiens, UniProt P05186); assay: activation of tissue-nonspecific alkaline phosphatase – biochemical, TNAP isozyme, human IAP uHTS hits, selectivity assay for human IAP activator project, dose response (AID 488886); format: functional;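 also: potency of compounds raising TNAP activity as a selectivity check on IAP activators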
T2 sequence (P05186 whole entry): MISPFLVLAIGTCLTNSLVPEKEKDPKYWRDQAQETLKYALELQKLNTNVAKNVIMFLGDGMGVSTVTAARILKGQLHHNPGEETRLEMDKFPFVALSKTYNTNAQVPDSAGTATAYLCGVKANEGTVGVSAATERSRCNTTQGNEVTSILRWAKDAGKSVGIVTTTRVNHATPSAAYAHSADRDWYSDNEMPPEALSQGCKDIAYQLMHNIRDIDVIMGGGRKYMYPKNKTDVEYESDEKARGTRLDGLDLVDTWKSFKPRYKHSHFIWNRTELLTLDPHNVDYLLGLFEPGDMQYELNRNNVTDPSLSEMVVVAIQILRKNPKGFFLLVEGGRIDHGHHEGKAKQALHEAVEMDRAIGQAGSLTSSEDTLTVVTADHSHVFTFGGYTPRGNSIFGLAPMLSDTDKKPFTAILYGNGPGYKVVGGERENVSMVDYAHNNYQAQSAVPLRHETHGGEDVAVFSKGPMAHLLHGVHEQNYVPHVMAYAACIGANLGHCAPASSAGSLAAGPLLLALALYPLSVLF

INS1 = assay: INS-1E survival protection against cytokine death – cell-based, luminescence, retest, dose response (AID 449756); format: functional; conditions: Rattus norvegicus;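 also: cell death triggered by IL-1 beta plus TNF-alpha plus IFN-gamma mixture; protective hits raise ATP signal compared with cytokine alone wells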
[22] = target: T3, Intestinal-type alkaline phosphatase (Homo sapiens, UniProt P09923); assay: activation of human intestinal alkaline phosphatase – biochemical, luminescent, uHTS hits, set 2, dose response (AID 488817); format: functional;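 also: potency of activators that raise enzyme activity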
T3 sequence (P09923 whole entry): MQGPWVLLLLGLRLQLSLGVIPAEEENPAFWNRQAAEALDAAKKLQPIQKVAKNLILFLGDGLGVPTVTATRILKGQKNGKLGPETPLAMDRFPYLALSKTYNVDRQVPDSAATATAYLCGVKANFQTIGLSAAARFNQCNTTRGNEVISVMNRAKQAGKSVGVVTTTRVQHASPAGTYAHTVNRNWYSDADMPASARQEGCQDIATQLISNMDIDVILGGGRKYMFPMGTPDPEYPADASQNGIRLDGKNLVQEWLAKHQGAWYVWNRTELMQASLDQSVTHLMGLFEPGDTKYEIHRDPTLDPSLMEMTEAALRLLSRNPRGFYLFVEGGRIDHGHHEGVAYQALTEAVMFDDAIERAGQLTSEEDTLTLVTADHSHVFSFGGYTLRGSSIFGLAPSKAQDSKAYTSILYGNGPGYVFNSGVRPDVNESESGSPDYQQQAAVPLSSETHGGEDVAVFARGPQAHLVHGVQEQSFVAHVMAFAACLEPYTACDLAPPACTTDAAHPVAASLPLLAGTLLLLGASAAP

[23] = target: T3, Intestinal-type alkaline phosphatase; assay: human intestinal alkaline phosphatase activators, dose response, biochemical, luminescence, uHTS hits (AID 463120); format: functional
[24] = target: Intestinal-type alkaline phosphatase (Mus musculus, UniProt P24822); assay: PubChem AID 488874; format: functional
Intestinal-type alkaline phosphatase (Mus musculus, UniProt P24822), sequence (P24822 whole entry): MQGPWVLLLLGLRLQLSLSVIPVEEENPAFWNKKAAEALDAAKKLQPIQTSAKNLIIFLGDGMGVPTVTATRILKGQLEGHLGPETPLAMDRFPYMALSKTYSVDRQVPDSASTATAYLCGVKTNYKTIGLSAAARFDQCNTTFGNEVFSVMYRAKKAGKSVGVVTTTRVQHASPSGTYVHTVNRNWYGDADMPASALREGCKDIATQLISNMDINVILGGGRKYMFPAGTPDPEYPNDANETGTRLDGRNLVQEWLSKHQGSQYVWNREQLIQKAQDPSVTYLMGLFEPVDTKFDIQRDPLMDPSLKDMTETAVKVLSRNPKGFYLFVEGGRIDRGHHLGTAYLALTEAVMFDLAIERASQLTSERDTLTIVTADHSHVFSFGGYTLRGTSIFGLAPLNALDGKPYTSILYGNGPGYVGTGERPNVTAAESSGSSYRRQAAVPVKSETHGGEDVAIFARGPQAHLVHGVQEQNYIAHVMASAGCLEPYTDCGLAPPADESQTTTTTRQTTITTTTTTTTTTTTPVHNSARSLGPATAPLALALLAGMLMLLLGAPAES

[25] = Counterscreen for AddAB inhibitors: absorbance-based bacterial cell-based high throughput dose response assay for inhibitors of bacterial viability. [Related pubchem assays (depositor defined):AID435030, AID449728, AID449731, AID488942, AID488955, AID488956]; format: functional
[26] = alpha-synuclein stem-loop luciferase translation blockers – H4 neuroglioma cells, luminescence, confirmation (AID 1988); format: functional, cell-based

## COc1ccc2c(c1OC)C(=O)N1c3ccccc3COC21 (stereo unspecified)
[1]
  IC50: > 47.1 µM (inactive)
[2]
  EC50: > 53 µM (inactive)
HeLa
  AC50: > 350 µM (inactive)

## COc1ccc(NC(=O)c2ccc3[nH]c(C)c(C)c3c2)cc1
HeLa
  AC50: 47.9 µM (active)

## O=C1NC(=O)/C(=C\c2ccc(O)cc2O)S1
[3]
  AC50: 0.56 µM (active)
[4]
  AC50: 2.07 µM (active)
[5]
  AC50: 1.78 µM (active)
[6]
  IC50: 2.2 µM (active)

## CCOc1ccc(-c2nc(CSCC(=O)NCc3ccco3)c(C)o2)cc1
[7]
  EC50: > 8 µM (not active)
[8]
  IC50: > 80 µM (inactive)
HEK293 [9]
  IC50: 25.2 µM (inactive)
HEK293 [10]
  AC50: 32 µM (active)
HEK293 [11]; Homo sapiens, HEK293
  IC50: 54.4 µM (inactive)
HEK293 [11]; hek293
  IC50: 53.1 µM (inactive)
Jurkat
  IC50: > 79 µM (inactive)
HEK293 [12]
  EC50: 20.3 µM (inactive)
HEK293 [13]
  EC50: 15.4 µM (not active)

## CCN(CC)C(=O)CCc1nc(-c2ccc(C(C)(C)C)cc2)no1
HEK293 [9]
  IC50: 19.7 µM (active)
HEK293 [11]; Homo sapiens, HEK293
  IC50: 54.7 µM (inactive)
HEK293 [11]; hek293
  IC50: 51.5 µM (inactive)
Jurkat
  IC50: 47.8 µM (inactive)

## CCCCCCc1c(C)nc(-n2[nH]c(C)c(CCO)c2=O)[nH]c1=O
[14]
  EC50: > 180 µM (inactive)
[15]
  EC50: > 160 µM (inactive)
[16]
  EC50: 0.635 µM (active)
[17]
  EC50: > 160 µM (inactive)

## O=c1c2ccccc2nc(N/N=C/c2c(O)ccc3ccccc23)n1O
[18]
  EC50: 0.601 µM (active)
[14]
  EC50: > 180 µM (inactive)
[15]
  EC50: 18.1 µM (active)
Exodeoxyribonuclease V
  IC50: > 119 µM (inactive)
cells
  EC50: 1.26 µM (active)
[19]
  EC50: > 12 µM (inconclusive)
[20]
  EC50: < 0.1 µM (active)
[21]
  EC50: > 100 µM (inactive)
INS1
  AC50: 1.23 µM (active)
[16]
  EC50: 0.212 µM (active)
[22]
  EC50: 31 µM (active)
[17]
  EC50: > 150 µM (inactive)
[23]
  EC50: 13.6 µM (active)
[24]
  IC50: 75.3 µM (active)
[25]
  IC50: > 119 µM (inactive)
[26]
  EC50: < 0.1 µM (active)
